As a reminder, the pIC50 is −log10 of the IC50, conventionally taken in molar units.

pIC50: −log10 of the molar value. A value given as a limit tells only on which side of the number the result lay.

Here are results for 5 molecules from paper PMC7730235, “Discovery of a Novel Class of Covalent Dual Inhibitors Targeting the Protein Kinases BMX and BTK” (International Journal of Molecular Sciences, 2020).

Holding throughout (experiment): Radiometric kinase assay (Reaction Biology HotSpot)
Type in all cases: biochemical

The target in assay [1] is T1, HER4 (Homo sapiens, UniProt Q15303).
T1 construct: purchased Reaction Biology Corporation
T1 sequence (Q15303 26-1308): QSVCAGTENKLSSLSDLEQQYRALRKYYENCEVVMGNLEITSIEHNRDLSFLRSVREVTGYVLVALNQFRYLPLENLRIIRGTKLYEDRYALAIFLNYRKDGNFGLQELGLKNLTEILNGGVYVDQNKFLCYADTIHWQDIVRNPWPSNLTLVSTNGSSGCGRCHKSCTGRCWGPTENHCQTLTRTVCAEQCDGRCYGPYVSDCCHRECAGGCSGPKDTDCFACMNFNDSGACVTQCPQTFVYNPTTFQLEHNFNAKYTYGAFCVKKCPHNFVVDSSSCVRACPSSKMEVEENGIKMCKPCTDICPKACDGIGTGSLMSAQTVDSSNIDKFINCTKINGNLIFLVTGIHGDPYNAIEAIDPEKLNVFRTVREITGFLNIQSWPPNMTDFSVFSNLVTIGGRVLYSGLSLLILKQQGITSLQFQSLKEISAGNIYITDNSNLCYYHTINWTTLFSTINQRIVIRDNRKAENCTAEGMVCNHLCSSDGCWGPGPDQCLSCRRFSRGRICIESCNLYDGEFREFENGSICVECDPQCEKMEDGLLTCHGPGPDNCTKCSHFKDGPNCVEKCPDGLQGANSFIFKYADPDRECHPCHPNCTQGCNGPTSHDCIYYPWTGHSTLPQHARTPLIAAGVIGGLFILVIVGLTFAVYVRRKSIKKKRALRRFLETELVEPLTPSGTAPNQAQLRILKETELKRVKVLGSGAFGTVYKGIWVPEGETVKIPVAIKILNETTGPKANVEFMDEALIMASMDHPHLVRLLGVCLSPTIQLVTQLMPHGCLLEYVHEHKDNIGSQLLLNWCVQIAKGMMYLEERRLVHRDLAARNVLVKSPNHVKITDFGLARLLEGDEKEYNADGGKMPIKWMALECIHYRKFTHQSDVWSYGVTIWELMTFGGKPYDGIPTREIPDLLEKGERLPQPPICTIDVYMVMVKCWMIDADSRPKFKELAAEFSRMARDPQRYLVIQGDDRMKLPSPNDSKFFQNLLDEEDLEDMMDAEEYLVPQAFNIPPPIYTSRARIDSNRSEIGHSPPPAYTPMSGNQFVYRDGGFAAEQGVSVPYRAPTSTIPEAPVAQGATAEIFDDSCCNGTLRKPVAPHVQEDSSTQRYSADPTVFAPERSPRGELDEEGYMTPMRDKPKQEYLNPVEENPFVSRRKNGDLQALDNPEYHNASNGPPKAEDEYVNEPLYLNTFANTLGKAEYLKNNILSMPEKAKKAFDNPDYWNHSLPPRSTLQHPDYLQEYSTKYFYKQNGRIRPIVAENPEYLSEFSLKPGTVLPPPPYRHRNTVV
The note with it: [ATP] = 10 μM; for remaining activity at 0.2 µM: 200 nM compound, duplicate mean, read-out: Residual Activity @ 200 nM, HER4. The method, then:
(§1) If not mentioned differently, in vitro profiling of compounds was performed at Reaction Biology Corporation using the HotSpot™ assay platform.

Assay [2] deals with T2, BLK (Homo sapiens, UniProt P51451).
T2 construct: purchased Reaction Biology Corporation
T2 sequence (P51451 whole entry): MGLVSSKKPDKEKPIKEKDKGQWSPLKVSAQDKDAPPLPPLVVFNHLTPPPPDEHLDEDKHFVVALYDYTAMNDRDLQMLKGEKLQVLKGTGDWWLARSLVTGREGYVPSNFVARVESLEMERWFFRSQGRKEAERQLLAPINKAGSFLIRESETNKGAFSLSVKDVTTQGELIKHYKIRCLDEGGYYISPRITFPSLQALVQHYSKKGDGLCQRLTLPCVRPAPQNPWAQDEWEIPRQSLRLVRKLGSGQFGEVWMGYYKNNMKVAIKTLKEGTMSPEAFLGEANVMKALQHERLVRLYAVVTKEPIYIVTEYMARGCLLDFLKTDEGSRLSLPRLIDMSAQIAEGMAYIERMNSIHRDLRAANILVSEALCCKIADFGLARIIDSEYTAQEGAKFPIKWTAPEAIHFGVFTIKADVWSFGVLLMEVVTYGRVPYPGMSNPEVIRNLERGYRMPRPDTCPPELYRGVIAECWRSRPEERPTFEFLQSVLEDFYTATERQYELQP
The note with it: [ATP] = 10 μM; for remaining activity at 0.2 µM: 200 nM compound, duplicate mean, read-out: Residual Activity @ 200 nM, BLK. The method, then: as §1

Assay [3] addresses T3, ITK (Homo sapiens, UniProt Q08881).
T3 construct: purchased Reaction Biology Corporation
T3 sequence (Q08881 1-620): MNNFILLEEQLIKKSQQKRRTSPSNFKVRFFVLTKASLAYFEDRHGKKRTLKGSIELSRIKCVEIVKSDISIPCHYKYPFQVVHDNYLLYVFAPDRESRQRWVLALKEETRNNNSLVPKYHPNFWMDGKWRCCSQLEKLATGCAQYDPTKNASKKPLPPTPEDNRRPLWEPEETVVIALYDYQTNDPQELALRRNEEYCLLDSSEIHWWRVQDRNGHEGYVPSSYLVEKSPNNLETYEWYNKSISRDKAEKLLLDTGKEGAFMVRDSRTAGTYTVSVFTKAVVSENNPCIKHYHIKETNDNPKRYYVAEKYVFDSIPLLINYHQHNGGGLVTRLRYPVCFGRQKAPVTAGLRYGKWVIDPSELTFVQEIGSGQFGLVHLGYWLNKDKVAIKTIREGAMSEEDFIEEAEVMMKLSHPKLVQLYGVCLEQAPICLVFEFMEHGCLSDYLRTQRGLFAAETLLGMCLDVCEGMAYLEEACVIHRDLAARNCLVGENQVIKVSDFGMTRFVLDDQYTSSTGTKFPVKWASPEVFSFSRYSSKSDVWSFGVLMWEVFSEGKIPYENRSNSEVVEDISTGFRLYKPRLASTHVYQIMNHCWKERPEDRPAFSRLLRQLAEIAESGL
The note with it: 200 nM compound, duplicate mean, [ATP] = 10 μM; read-out: Residual Activity @ 200 nM, ITK. The method, then:
as §1

For assay [4], the target named is T4, TXK (Homo sapiens, UniProt P42681).
T4 construct: purchased Reaction Biology Corporation
T4 sequence (P42681 1-527): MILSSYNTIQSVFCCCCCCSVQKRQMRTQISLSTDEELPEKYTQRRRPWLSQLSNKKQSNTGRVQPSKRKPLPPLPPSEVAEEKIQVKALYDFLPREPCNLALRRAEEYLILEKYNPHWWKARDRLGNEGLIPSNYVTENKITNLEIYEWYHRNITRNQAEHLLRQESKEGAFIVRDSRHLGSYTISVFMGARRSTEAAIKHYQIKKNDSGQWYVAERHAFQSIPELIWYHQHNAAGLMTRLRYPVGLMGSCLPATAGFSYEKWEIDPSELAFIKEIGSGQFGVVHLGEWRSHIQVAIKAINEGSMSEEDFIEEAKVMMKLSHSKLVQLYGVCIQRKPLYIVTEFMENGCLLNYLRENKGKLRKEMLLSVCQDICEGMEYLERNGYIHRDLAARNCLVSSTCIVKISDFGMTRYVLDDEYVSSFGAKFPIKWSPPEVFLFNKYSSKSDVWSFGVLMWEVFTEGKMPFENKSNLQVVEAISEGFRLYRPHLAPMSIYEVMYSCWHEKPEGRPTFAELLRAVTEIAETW
The note with it: for remaining activity at 0.2 µM: read-out: Residual Activity @ 200 nM, TXK; for pIC50: five-dose singlicate. The method, then:
as §1

For assay [5], the target named is T5, JAK3 (Homo sapiens, UniProt P52333).
T5 construct: purchased Reaction Biology Corporation
T5 sequence (P52333 1-1124): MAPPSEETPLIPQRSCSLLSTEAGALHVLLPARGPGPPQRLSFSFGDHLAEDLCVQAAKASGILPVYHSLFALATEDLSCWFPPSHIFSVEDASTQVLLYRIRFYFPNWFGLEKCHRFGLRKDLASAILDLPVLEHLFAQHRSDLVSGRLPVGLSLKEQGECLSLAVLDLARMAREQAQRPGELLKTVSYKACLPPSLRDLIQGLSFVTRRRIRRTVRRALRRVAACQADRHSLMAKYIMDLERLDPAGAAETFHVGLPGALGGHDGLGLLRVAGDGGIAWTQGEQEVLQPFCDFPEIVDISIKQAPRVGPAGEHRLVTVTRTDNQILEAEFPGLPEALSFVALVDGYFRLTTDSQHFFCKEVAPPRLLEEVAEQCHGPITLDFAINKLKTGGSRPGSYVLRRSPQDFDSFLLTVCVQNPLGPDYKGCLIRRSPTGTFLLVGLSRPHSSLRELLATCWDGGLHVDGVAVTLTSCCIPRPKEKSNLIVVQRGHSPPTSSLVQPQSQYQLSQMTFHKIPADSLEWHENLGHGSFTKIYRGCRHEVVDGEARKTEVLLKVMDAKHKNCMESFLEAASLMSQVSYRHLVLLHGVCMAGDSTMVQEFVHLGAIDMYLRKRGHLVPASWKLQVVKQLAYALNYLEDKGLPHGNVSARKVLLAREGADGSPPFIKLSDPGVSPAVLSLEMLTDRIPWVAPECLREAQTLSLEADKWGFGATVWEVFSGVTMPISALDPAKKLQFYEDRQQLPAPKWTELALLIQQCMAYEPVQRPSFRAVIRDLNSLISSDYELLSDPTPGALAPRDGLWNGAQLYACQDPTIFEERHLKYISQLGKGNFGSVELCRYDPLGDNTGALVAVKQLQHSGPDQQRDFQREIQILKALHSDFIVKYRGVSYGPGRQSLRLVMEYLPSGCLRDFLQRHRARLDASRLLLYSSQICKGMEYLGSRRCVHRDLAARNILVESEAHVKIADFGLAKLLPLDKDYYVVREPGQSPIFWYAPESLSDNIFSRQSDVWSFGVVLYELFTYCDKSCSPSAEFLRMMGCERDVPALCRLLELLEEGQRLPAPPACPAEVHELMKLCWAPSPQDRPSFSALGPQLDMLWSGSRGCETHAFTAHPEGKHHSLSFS
The note with it: [ATP] = 10 μM; for remaining activity at 0.2 µM: 200 nM compound, duplicate mean, read-out: Residual Activity @ 200 nM, JAK3; for pIC50: radiometric HotSpot, five-dose singlicate. The method, then:
as §1

Where [6] appears, read: radiometric HotSpot, five-dose singlicate.
Setting [7] is: 200 nM compound, duplicate mean, [ATP] = 10 μM.
Where [8] appears, read: radiometric HotSpot, [ATP] = 10 μM.

For the molecule `C=CC(=O)Nc1cccc(-c2c[nH]c3ncc(NC(=O)c4cccs4)cc23)c1` [Compound 12c, N-(3-(3-acrylamidophenyl)-1H-pyrrolo[2,3-b]pyridin-5-yl)thiophene-2-carboxamide], the remaining activity at 0.2 µM is 4.7% in assay [1]; 8.6% in assay [2]; 94% in assay [3]; 0.3% in assay [4] (setting [7]); greater than 100% in assay [5]. The negative-log IC50 (pIC50) in assay [1] (setting [6]) is 8.07; in assay [2] (setting [6]), 7.52; in assay [4] (setting [8]), 8.00; in assay [5] it was less than 5.00.

On to `CCC(=O)Nc1cccc(-c2c[nH]c3ncc(NC(=O)C4CCCC4)cc23)c1` [Compound 12b, N-(3-(3-propionamidophenyl)-1H-pyrrolo[2,3-b]pyridin-5-yl)cyclopentanecarboxamide], for which the remaining activity at 0.2 µM in assay [1] came to 95.4%; in assay [2] it was 95.1%; in assay [4] (setting [7]) it was 89%. Besides, in assay [4] (setting [7]), the “Residual Activity @ 200 nM, TXK” value stood at 88.8%.

For the molecule `C=CC(=O)Nc1cccc(-c2c[nH]c3ncc(C(N)=O)cc23)c1` [Compound 10a, 3-(3-acrylamidophenyl)-1H-pyrrolo[2,3-b]pyridine-5-carboxamide], the remaining activity at 0.2 µM in assay [1] amounted to 66.6%; in assay [2], 82.4%; in assay [3] it was 90.8%; in assay [4] (setting [7]), 3.2%; in assay [5], 0.5%. Besides, the pIC50 in assay [4] (setting [8]) was 7.55; in assay [5] it was greater than 10.00.

For `C=CC(=O)Nc1cccc(-c2c[nH]c3ncccc23)c1` [Compound 9a, N-(3-(1H-pyrrolo[2,3-b]pyridin-3-yl)phenyl)acrylamide], the remaining activity at 0.2 µM in assay [1] is 66.1%; in assay [2], 95.8%; in assay [3], 88.1%; in assay [4] (setting [7]), 1.8%; in assay [5] it was 0.8%. In assay [5], this molecule gave a negative logarithm of the IC50 (pIC50) of 9.70.

As to `C=CC(=O)Nc1cccc(-c2c[nH]c3ncc(C(=O)NC4CCCC4)cc23)c1` [Compound 11a, 3-(3-acrylamidophenyl)-N-cyclopentyl-1H-pyrrolo[2,3-b]pyridine-5-carboxamide], in assay [4] (1 µM compound, radiometric HotSpot, read-out: residual activity at 1 µM, TXK), the remaining activity at 1 µM is 72%. Besides, the pIC50 in assay [4] (setting [8]) is less than 6.00.
